Biological target: T1, human TLR7 (Homo sapiens, UniProt Q9NYK1)
T1 construct: host or cells: HEK293 (HEK-Blue hTLR7)
T1 sequence (Q9NYK1 27-1049): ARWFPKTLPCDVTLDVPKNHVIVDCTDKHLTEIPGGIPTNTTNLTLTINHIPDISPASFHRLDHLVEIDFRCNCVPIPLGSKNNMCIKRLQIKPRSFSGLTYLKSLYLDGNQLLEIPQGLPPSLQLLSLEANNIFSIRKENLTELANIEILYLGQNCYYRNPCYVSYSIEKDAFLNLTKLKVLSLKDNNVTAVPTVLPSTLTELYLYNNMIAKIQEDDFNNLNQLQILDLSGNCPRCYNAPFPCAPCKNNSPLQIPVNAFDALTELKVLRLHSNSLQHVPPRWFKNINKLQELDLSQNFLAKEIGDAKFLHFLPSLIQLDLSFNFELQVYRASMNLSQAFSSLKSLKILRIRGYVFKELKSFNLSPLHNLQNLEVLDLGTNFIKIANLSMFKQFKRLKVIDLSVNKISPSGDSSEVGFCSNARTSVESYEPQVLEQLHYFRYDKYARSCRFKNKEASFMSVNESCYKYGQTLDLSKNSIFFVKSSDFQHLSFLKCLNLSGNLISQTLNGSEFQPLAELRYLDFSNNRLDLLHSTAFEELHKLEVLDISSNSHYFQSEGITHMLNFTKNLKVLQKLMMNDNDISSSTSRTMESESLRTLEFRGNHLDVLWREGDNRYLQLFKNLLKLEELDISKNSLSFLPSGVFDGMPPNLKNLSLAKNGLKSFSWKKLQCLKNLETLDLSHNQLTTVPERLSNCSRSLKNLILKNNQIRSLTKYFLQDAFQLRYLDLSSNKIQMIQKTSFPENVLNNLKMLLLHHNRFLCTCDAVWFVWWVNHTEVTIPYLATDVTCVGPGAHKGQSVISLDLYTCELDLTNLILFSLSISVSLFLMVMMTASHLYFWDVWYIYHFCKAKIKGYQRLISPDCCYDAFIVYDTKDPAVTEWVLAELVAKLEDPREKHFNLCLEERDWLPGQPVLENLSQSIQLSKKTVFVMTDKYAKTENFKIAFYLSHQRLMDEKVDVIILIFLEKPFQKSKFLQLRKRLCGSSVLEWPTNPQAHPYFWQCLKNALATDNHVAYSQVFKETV
Experiment: HEK293-Blue-hTLR-7 cells assay (SEAP reporter, R848 stimulation)
Type: cell-based
Details: HEK293-Blue-hTLR7 cells, R848, 20 hrs; read-out: HEK/hTLR7 IC50
Summary of the method: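 HEK293-Blue-hTLR7 cells (NF-κB/AP-1-driven SEAP reporter) were stimulated with R848 alongside serially diluted compound at 1% final DMSO for 20 h at 37 °C. Supernatant SEAP was then developed with QUANTI-Blue for 2 h at 37 °C and absorbance read at 620–655 nm; antagonism is measured as reduced reporter signal.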

`CO[C@H]1CN(c2nc(C)cc(N3CCN(C[C@H]4CN(c5ccc(C#N)c6ncccc56)C[C@@H](C)O4)CC3)n2)CC1N` (relative stereo) [Example 59, 5-[(2R,6S)-2-methyl-6-[[4-[6-methyl-2-[trans-3-amino-4-methoxy-pyrrolidin-1-yl]pyrimidin-4-yl]piperazin-1-yl]methyl]morpholin-4-yl]quinoline-8-carbonitrile] and `Cc1cc(N2CCN(C[C@H]3CN(c4ccc(C#N)c5ncccc45)C[C@@H](C)O3)CC2)nc(N2CC(N)C(F)C2)n1` (stereo in doubt) [Example 54, 5-[(2S,6R)-2-[[4-[2-[(3S,4R)-3-amino-4-fluoro-pyrrolidin-1-yl]-6-methyl-pyrimidin-4-yl]piperazin-1-yl]methyl]-6-methyl-morpholin-4-yl]quinoline-8-carbonitrile] are within 1.5-fold of each other in IC50: 0.011 µM for the first, 0.009 µM for the second.

Going from `COC1CNC[C@H]1Nc1cccc(N2CCN(C[C@H]3CN(c4ccc(C#N)c5ncccc45)C[C@@H](C)O3)CC2)n1` (stereo in doubt) [Example 39, 5-[(2S,6R)-2-[[4-[6-[[(3R,4R)-4-methoxypyrrolidin-3-yl]amino]-2-pyridyl]piperazin-1-yl]methyl]-6-methyl-morpholin-4-yl]quinoline-8-carbonitrile] to `C[C@@H]1CN(c2ccc(C#N)c3ncccc23)C[C@H](CN2CCN(c3cccc(N4CCNCC4)n3)CC2)O1` [Example 10, 5-[(2R,6S)-2-methyl-6-[[4-(6-piperazin-1-yl-2-pyridyl)piperazin-1-yl]methyl]morpholin-4-yl]quinoline-8-carbonitrile], the IC50 falls from 0.051 µM to 0.033 µM (1.5-fold). The second is the more potent here.

Going from `COC1CN(c2nccc(N3CCN(C[C@H]4CN(c5ccc(C#N)c6ncccc56)C[C@@H](C)O4)CC3)n2)C[C@H]1N` (stereo in doubt) [Example 52, 5-[(2S,6R)-2-[[4-[2-[(3R,4R)-3-amino-4-methoxy-pyrrolidin-1-yl]pyrimidin-4-yl]piperazin-1-yl]methyl]-6-methyl-morpholin-4-yl]quinoline-8-carbonitrile] to `CO[C@H]1CN(c2nccc(N3CCN(C[C@H]4CN(c5ccc(C#N)c6ncccc56)C[C@@H](C)O4)CC3)n2)CC1N` (stereo in doubt) [Example 53, 5-[(2S,6R)-2-[[4-[2-[(3S,4S)-3-amino-4-methoxy-pyrrolidin-1-yl]pyrimidin-4-yl]piperazin-1-yl]methyl]-6-methyl-morpholin-4-yl]quinoline-8-carbonitrile], the IC50 falls from 0.015 µM to 0.008 µM (1.9-fold).

`COC1CN(c2ccc(C3CN(C[C@H]4CN(c5cc(=O)n(C)c6ncccc56)C[C@@H](C)O4)C3)cc2)C[C@H]1N` (stereo in doubt) [Example 172, 4-[(2S,6R)-2-[[3-[4-[(3R,4R)-3-amino-4-methoxy-pyrrolidin-1-yl]phenyl]azetidin-1-yl]methyl]-6-methyl-morpholin-4-yl]-1-methyl-1,8-naphthyridin-2-one] and `C[C@@H]1CN(c2cc(=O)n(C)c3ncccc23)C[C@H](CN2CC(c3ccc(N4CC(F)[C@H](N)C4)cc3)C2)O1` (stereo in doubt) [Example 174, 4-[(2S,6R)-2-[[3-[4-[(3R,4R)-3-amino-4-fluoro-pyrrolidin-1-yl]phenyl]azetidin-1-yl]methyl]-6-methyl-morpholin-4-yl]-1-methyl-1,8-naphthyridin-2-one] are within 1.5-fold of each other in IC50: 0.041 µM for the first, 0.047 µM for the second.

`C[C@@H]1CN(c2ccc(C#N)n3ncc(F)c23)C[C@H](CN2CCN(c3ccc(C4CNCCO4)cc3F)CC2)O1` (stereo in doubt) [Example 183, 3-fluoro-4-[(2S,6R)-2-[[4-[2-fluoro-4-[(2S)-morpholin-2-yl]phenyl]piperazin-1-yl]methyl]-6-methyl-morpholin-4-yl]pyrazolo[1,5-a]pyridine-7-carbonitrile] and `C[C@@H]1CN(c2ccc(C#N)c3ncccc23)C[C@H](CN2CCN(c3ccc([C@@H]4CNCCO4)cc3)CC2)O1` [Example 19, 5-[(2R,6S)-2-methyl-6-[[4-[4-[(2R)-morpholin-2-yl]phenyl]piperazin-1-yl]methyl]morpholin-4-yl]quinoline-8-carbonitrile] are within 1.5-fold of each other in IC50: 0.028 µM for the first, 0.025 µM for the second.

`C[C@@H]1CN(c2ccc(C#N)c3ncccc23)C[C@H](CN2CCN(c3cncc(N4CCNCC4)c3)CC2)O1` [Example 7, 5-[(2R,6S)-2-methyl-6-[[4-(5-piperazin-1-yl-3-pyridyl)piperazin-1-yl]methyl]morpholin-4-yl]quinoline-8-carbonitrile] and `C[C@@H]1CN(c2ccc(C#N)c3ncccc23)C[C@H](CN2CCN(c3ccc(N4CCNCC4)cn3)CC2)O1` [Example 8, 5-[(2R,6S)-2-methyl-6-[[4-(5-piperazin-1-yl-2-pyridyl)piperazin-1-yl]methyl]morpholin-4-yl]quinoline-8-carbonitrile] are within 1.5-fold of each other in IC50: 0.034 µM for the first, 0.05 µM for the second.

`C[C@@H]1CN(c2ccc(C#N)c3ncccc23)C[C@H](CN2CCN(c3cc(N4CCNCC4)ccn3)CC2)O1` [Example 9, 5-[(2R,6S)-2-methyl-6-[[4-(4-piperazin-1-yl-2-pyridyl)piperazin-1-yl]methyl]morpholin-4-yl]quinoline-8-carbonitrile] and `C[C@@H]1CN(c2ccc(C#N)c3ncccc23)C[C@H](CN2CCN(c3ccc(N4CCNCC4)nc3)CC2)O1` [Example 13, 5-[(2R,6S)-2-methyl-6-[[4-(6-piperazin-1-yl-3-pyridyl)piperazin-1-yl]methyl]morpholin-4-yl]quinoline-8-carbonitrile] are within 1.5-fold of each other in IC50: 0.019 µM for the first, 0.018 µM for the second.

`C[C@@H]1CN(c2ccc(C#N)c3ncccc23)C[C@H](CN2CCC(C#N)(c3ccc(N4CCNCC4)cc3)CC2)O1` [Example 11, 5-[(2S,6R)-2-[[4-cyano-4-(4-piperazin-1-ylphenyl)-1-piperidyl]methyl]-6-methyl-morpholin-4-yl]quinoline-8-carbonitrile] and `C[C@@H]1CN(c2ccc(C#N)c3ncccc23)C[C@H](CN2CCN(c3ccc([C@H]4CNCCO4)cc3)CC2)O1` [Example 20, 5-[(2R,6S)-2-methyl-6-[[4-[4-[(2S)-morpholin-2-yl]phenyl]piperazin-1-yl]methyl]morpholin-4-yl]quinoline-8-carbonitrile] are within 1.5-fold of each other in IC50: 0.023 µM for the first, 0.02 µM for the second.

Compared with `C[C@@H]1CN(c2ccc(C#N)c3ncccc23)C[C@H](CN2CCN(c3cnc(N4CCNCC4)nc3)CC2)O1` [Example 12, 5-[(2R,6S)-2-methyl-6-[[4-(2-piperazin-1-ylpyrimidin-5-yl)piperazin-1-yl]methyl]morpholin-4-yl]quinoline-8-carbonitrile], `C[C@@H]1CN(c2ccc(C#N)c3ncccc23)C[C@H](CN2CCN(c3ncc(N4CCNCC4)cn3)CC2)O1` [Example 17, 5-[(2R,6S)-2-methyl-6-[[4-(5-piperazin-1-ylpyrimidin-2-yl)piperazin-1-yl]methyl]morpholin-4-yl]quinoline-8-carbonitrile] is 2.6-fold higher in IC50: 0.012 µM for the first, 0.031 µM for the second. The first is the more potent here.

`C[C@@H]1CN(c2ccc(C#N)c3ncccc23)C[C@H](CN2CCN(c3nccc(N4CCNCC4)n3)CC2)O1` [Example 14, 5-[(2R,6S)-2-methyl-6-[[4-(4-piperazin-1-ylpyrimidin-2-yl)piperazin-1-yl]methyl]morpholin-4-yl]quinoline-8-carbonitrile] and `C[C@@H]1CN(c2ccc(C#N)c3ncccc23)C[C@H](CN2CCN(c3ccnc(N4CCNCC4)n3)CC2)O1` [Example 15, 5-[(2R,6S)-2-methyl-6-[[4-(2-piperazin-1-ylpyrimidin-4-yl)piperazin-1-yl]methyl]morpholin-4-yl]quinoline-8-carbonitrile] are within 1.5-fold of each other in IC50: 0.006 µM for the first, 0.007 µM for the second.

`C[C@@H]1CN(c2ccc(C#N)c3ncccc23)C[C@H](CN2CCN(c3cc(N4CCNCC4)ncn3)CC2)O1` [Example 18, 5-[(2R,6S)-2-methyl-6-[[4-(6-piperazin-1-ylpyrimidin-4-yl)piperazin-1-yl]methyl]morpholin-4-yl]quinoline-8-carbonitrile] and `C[C@@H]1CN(c2ccc(C#N)c3ncccc23)C[C@H](CN2CCN(c3cc(N4CCN(C)CC4)ncn3)CC2)O1` [Example 21, 5-[(2R,6S)-2-methyl-6-[[4-[6-(4-methylpiperazin-1-yl)pyrimidin-4-yl]piperazin-1-yl]methyl]morpholin-4-yl]quinoline-8-carbonitrile] are within 1.5-fold of each other in IC50: 0.011 µM for the first, 0.016 µM for the second.

`C[C@@H]1CN(c2ccc(C#N)c3ncccc23)C[C@H](CN2CCN(c3ccnc(N4CCN(C)CC4)n3)CC2)O1` [Example 22, 5-((2R,6S)-2-methyl-6-((4-(2-(4-methylpiperazin-1-yl)pyrimidin-4-yl)piperazin-1-yl)methyl)morpholino)quinoline-8-carbonitrile] showed an IC50 of 0.01 µM.

From US20210395239A1 (Hoffmann-La Roche Inc., priority 2018, published 2021)
